Laboratory results published in ChEMBL document CHEMBL5724914, “Linking interpersonal differences in gut microbiota composition and drug biotransformation activity” (2024).

conditions: human gut metagenome, 24 h, 2 µM
Also: call rule not given here.

Bacterial Biotransformation	Compound
Compound metabolized	COc1c2occc2cc2ccc(=O)oc12 [METHOXSALEN]
Compound NOT metabolized	CN(C)CCc1c[nH]c2ccc(Cn3cncn3)cc12.O=C(O)c1ccccc1 [RIZATRIPTAN BENZOATE]

conditions: human gut metagenome, 24 h, 2 µM; remark: another data set of the same source

Bacterial Biotransformation	Compound
Compound NOT metabolized	CC[C@H](C)C(=O)O[C@H]1C[C@@H](C)C=C2C=C[C@H](C)[C@H](CC[C@@H]3C[C@@H](O)CC(=O)O3)[C@H]21 [LOVASTATIN]
Compound NOT metabolized	CN(C)CCc1c[nH]c2ccc(Cn3cncn3)cc12.O=C(O)c1ccccc1 [RIZATRIPTAN BENZOATE]

test: (§1) The drug is tested on Z-025 corresponding to rabbit gut metagenome with ENA study accession number: PRJEB37062 and ENA sample accession number: ERS12561824 for biotransformation under anaerobic condition. The drug concentrations were measured over 9 timepoints collected between 0 and 24 hours of incubation by liquid-chromatography-coupled mass spectrometry (LC–MS); conditions: 2 µM

Bacterial Biotransformation	Compound
Compound metabolized	CC[C@H](C)C(=O)O[C@H]1C[C@@H](C)C=C2C=C[C@H](C)[C@H](CC[C@@H]3C[C@@H](O)CC(=O)O3)[C@H]21 [LOVASTATIN]
Compound metabolized	COc1c2occc2cc2ccc(=O)oc12 [METHOXSALEN]
Compound NOT metabolized	CN(C)CCc1c[nH]c2ccc(Cn3cncn3)cc12.O=C(O)c1ccccc1 [RIZATRIPTAN BENZOATE]

conditions: human gut metagenome, 24 h, 2 µM; remark: another data set of the same source

Bacterial Biotransformation	Compound
Compound NOT metabolized	CC[C@H](C)C(=O)O[C@H]1C[C@@H](C)C=C2C=C[C@H](C)[C@H](CC[C@@H]3C[C@@H](O)CC(=O)O3)[C@H]21 [LOVASTATIN]
Compound metabolized	COc1c2occc2cc2ccc(=O)oc12 [METHOXSALEN]
Compound NOT metabolized	CN(C)CCc1c[nH]c2ccc(Cn3cncn3)cc12.O=C(O)c1ccccc1 [RIZATRIPTAN BENZOATE]

conditions: human gut metagenome, 24 h, 2 µM; remark: another data set of the same source

Bacterial Biotransformation	Compound
Compound NOT metabolized	CC[C@H](C)C(=O)O[C@H]1C[C@@H](C)C=C2C=C[C@H](C)[C@H](CC[C@@H]3C[C@@H](O)CC(=O)O3)[C@H]21 [LOVASTATIN]
Compound metabolized	COc1c2occc2cc2ccc(=O)oc12 [METHOXSALEN]
Compound NOT metabolized	CN(C)CCc1c[nH]c2ccc(Cn3cncn3)cc12.O=C(O)c1ccccc1 [RIZATRIPTAN BENZOATE]

conditions: human gut metagenome, 24 h, 2 µM; remark: another data set of the same source

Bacterial Biotransformation	Compound
Compound metabolized	CC[C@H](C)C(=O)O[C@H]1C[C@@H](C)C=C2C=C[C@H](C)[C@H](CC[C@@H]3C[C@@H](O)CC(=O)O3)[C@H]21 [LOVASTATIN]
Compound metabolized	COc1c2occc2cc2ccc(=O)oc12 [METHOXSALEN]
Compound NOT metabolized	CN(C)CCc1c[nH]c2ccc(Cn3cncn3)cc12.O=C(O)c1ccccc1 [RIZATRIPTAN BENZOATE]

test: as §1, with “Z-030” for “Z-025”, “mouse” for “rabbit”, “ERS12561829” for “ERS12561824”; conditions: 2 µM

Bacterial Biotransformation	Compound
Compound metabolized	CC[C@H](C)C(=O)O[C@H]1C[C@@H](C)C=C2C=C[C@H](C)[C@H](CC[C@@H]3C[C@@H](O)CC(=O)O3)[C@H]21 [LOVASTATIN]
Compound NOT metabolized	COc1c2occc2cc2ccc(=O)oc12 [METHOXSALEN]
Compound NOT metabolized	CN(C)CCc1c[nH]c2ccc(Cn3cncn3)cc12.O=C(O)c1ccccc1 [RIZATRIPTAN BENZOATE]

conditions: human gut metagenome, 24 h, 2 µM; remark: another data set of the same source

Bacterial Biotransformation	Compound
Compound NOT metabolized	CC[C@H](C)C(=O)O[C@H]1C[C@@H](C)C=C2C=C[C@H](C)[C@H](CC[C@@H]3C[C@@H](O)CC(=O)O3)[C@H]21 [LOVASTATIN]
Compound NOT metabolized	CN(C)CCc1c[nH]c2ccc(Cn3cncn3)cc12.O=C(O)c1ccccc1 [RIZATRIPTAN BENZOATE]

conditions: human gut metagenome, 24 h, 2 µM; remark: another data set of the same source

Bacterial Biotransformation	Compound
Compound NOT metabolized	CC[C@H](C)C(=O)O[C@H]1C[C@@H](C)C=C2C=C[C@H](C)[C@H](CC[C@@H]3C[C@@H](O)CC(=O)O3)[C@H]21 [LOVASTATIN]
Compound metabolized	COc1c2occc2cc2ccc(=O)oc12 [METHOXSALEN]
Compound NOT metabolized	CN(C)CCc1c[nH]c2ccc(Cn3cncn3)cc12.O=C(O)c1ccccc1 [RIZATRIPTAN BENZOATE]

conditions: human gut metagenome, 24 h, 2 µM; remark: another data set of the same source

Bacterial Biotransformation	Compound
Compound metabolized	CC[C@H](C)C(=O)O[C@H]1C[C@@H](C)C=C2C=C[C@H](C)[C@H](CC[C@@H]3C[C@@H](O)CC(=O)O3)[C@H]21 [LOVASTATIN]
Compound metabolized	COc1c2occc2cc2ccc(=O)oc12 [METHOXSALEN]

test: as §1, with “WLS-086” for “Z-025”, “human” for “rabbit”, “ERS12561752” for “ERS12561824”; conditions: 2 µM

Bacterial Biotransformation	Compound
Compound NOT metabolized	CC[C@H](C)C(=O)O[C@H]1C[C@@H](C)C=C2C=C[C@H](C)[C@H](CC[C@@H]3C[C@@H](O)CC(=O)O3)[C@H]21 [LOVASTATIN]
Compound metabolized	COc1c2occc2cc2ccc(=O)oc12 [METHOXSALEN]
Compound NOT metabolized	CN(C)CCc1c[nH]c2ccc(Cn3cncn3)cc12.O=C(O)c1ccccc1 [RIZATRIPTAN BENZOATE]

test: as §1, with “Z-019” for “Z-025”, “rat” for “rabbit”, “ERS12561818” for “ERS12561824”; conditions: 2 µM

Bacterial Biotransformation	Compound
Compound metabolized	CC[C@H](C)C(=O)O[C@H]1C[C@@H](C)C=C2C=C[C@H](C)[C@H](CC[C@@H]3C[C@@H](O)CC(=O)O3)[C@H]21 [LOVASTATIN]
Compound NOT metabolized	COc1c2occc2cc2ccc(=O)oc12 [METHOXSALEN]
Compound NOT metabolized	CN(C)CCc1c[nH]c2ccc(Cn3cncn3)cc12.O=C(O)c1ccccc1 [RIZATRIPTAN BENZOATE]

test: as §1, with “Z-023” for “Z-025”, “to” for “to rabbit gut”, “ERS12561822” for “ERS12561824”; conditions: 2 µM

Bacterial Biotransformation	Compound
Compound metabolized	CC[C@H](C)C(=O)O[C@H]1C[C@@H](C)C=C2C=C[C@H](C)[C@H](CC[C@@H]3C[C@@H](O)CC(=O)O3)[C@H]21 [LOVASTATIN]
Compound metabolized	COc1c2occc2cc2ccc(=O)oc12 [METHOXSALEN]
Compound NOT metabolized	CN(C)CCc1c[nH]c2ccc(Cn3cncn3)cc12.O=C(O)c1ccccc1 [RIZATRIPTAN BENZOATE]

conditions: human gut metagenome, 24 h, 2 µM; remark: another data set of the same source

Bacterial Biotransformation	Compound
Compound NOT metabolized	CC[C@H](C)C(=O)O[C@H]1C[C@@H](C)C=C2C=C[C@H](C)[C@H](CC[C@@H]3C[C@@H](O)CC(=O)O3)[C@H]21 [LOVASTATIN]
Compound NOT metabolized	CN(C)CCc1c[nH]c2ccc(Cn3cncn3)cc12.O=C(O)c1ccccc1 [RIZATRIPTAN BENZOATE]

test: as §1, with “Z-016” for “Z-025”, “mouse” for “rabbit”, “ERS12561815” for “ERS12561824”; conditions: 2 µM

Bacterial Biotransformation	Compound
Compound NOT metabolized	CC[C@H](C)C(=O)O[C@H]1C[C@@H](C)C=C2C=C[C@H](C)[C@H](CC[C@@H]3C[C@@H](O)CC(=O)O3)[C@H]21 [LOVASTATIN]
Compound metabolized	COc1c2occc2cc2ccc(=O)oc12 [METHOXSALEN]
Compound NOT metabolized	CN(C)CCc1c[nH]c2ccc(Cn3cncn3)cc12.O=C(O)c1ccccc1 [RIZATRIPTAN BENZOATE]

test: as §1, with “WLS-310” for “Z-025”, “human” for “rabbit”, “ERS12561785” for “ERS12561824”; conditions: 2 µM

Bacterial Biotransformation	Compound
Compound NOT metabolized	CC[C@H](C)C(=O)O[C@H]1C[C@@H](C)C=C2C=C[C@H](C)[C@H](CC[C@@H]3C[C@@H](O)CC(=O)O3)[C@H]21 [LOVASTATIN]
Compound metabolized	COc1c2occc2cc2ccc(=O)oc12 [METHOXSALEN]
Compound NOT metabolized	CN(C)CCc1c[nH]c2ccc(Cn3cncn3)cc12.O=C(O)c1ccccc1 [RIZATRIPTAN BENZOATE]

test: as §1, with “Z-014” for “Z-025”, “rat” for “rabbit”, “ERS12561814” for “ERS12561824”; conditions: 2 µM

Bacterial Biotransformation	Compound
Compound NOT metabolized	CC[C@H](C)C(=O)O[C@H]1C[C@@H](C)C=C2C=C[C@H](C)[C@H](CC[C@@H]3C[C@@H](O)CC(=O)O3)[C@H]21 [LOVASTATIN]
Compound NOT metabolized	COc1c2occc2cc2ccc(=O)oc12 [METHOXSALEN]
Compound NOT metabolized	CN(C)CCc1c[nH]c2ccc(Cn3cncn3)cc12.O=C(O)c1ccccc1 [RIZATRIPTAN BENZOATE]

test: as §1, with “Z-018” for “Z-025”, “pig” for “rabbit”, “ERS12561817” for “ERS12561824”; conditions: 2 µM

Bacterial Biotransformation	Compound
Compound metabolized	CC[C@H](C)C(=O)O[C@H]1C[C@@H](C)C=C2C=C[C@H](C)[C@H](CC[C@@H]3C[C@@H](O)CC(=O)O3)[C@H]21 [LOVASTATIN]
Compound metabolized	COc1c2occc2cc2ccc(=O)oc12 [METHOXSALEN]
Compound NOT metabolized	CN(C)CCc1c[nH]c2ccc(Cn3cncn3)cc12.O=C(O)c1ccccc1 [RIZATRIPTAN BENZOATE]

conditions: human gut metagenome, 24 h, 2 µM; remark: another data set of the same source

Bacterial Biotransformation	Compound
Compound NOT metabolized	CC[C@H](C)C(=O)O[C@H]1C[C@@H](C)C=C2C=C[C@H](C)[C@H](CC[C@@H]3C[C@@H](O)CC(=O)O3)[C@H]21 [LOVASTATIN]
Compound metabolized	COc1c2occc2cc2ccc(=O)oc12 [METHOXSALEN]
Compound NOT metabolized	CN(C)CCc1c[nH]c2ccc(Cn3cncn3)cc12.O=C(O)c1ccccc1 [RIZATRIPTAN BENZOATE]

conditions: human gut metagenome, 24 h, 2 µM; remark: another data set of the same source

Bacterial Biotransformation	Compound
Compound NOT metabolized	CC[C@H](C)C(=O)O[C@H]1C[C@@H](C)C=C2C=C[C@H](C)[C@H](CC[C@@H]3C[C@@H](O)CC(=O)O3)[C@H]21 [LOVASTATIN]
Compound metabolized	COc1c2occc2cc2ccc(=O)oc12 [METHOXSALEN]
Compound NOT metabolized	CN(C)CCc1c[nH]c2ccc(Cn3cncn3)cc12.O=C(O)c1ccccc1 [RIZATRIPTAN BENZOATE]
